Assay results published in ChEMBL document CHEMBL1201862, “PubChem BioAssay data set” (2004).
“And” between values parts separate entries of the source, which are not always exact repeats. Equal values may be shown once. The source made the active and inactive calls.

How the values were obtained:
[1] = inhibitors of SNCA 5'UTR-driven reporter translation, confirmation, H4 neuroglioma cells, luminescence (AID 1988); assay type: functional, cell-based
[2] = inhibitors of firefly luciferase expression or activity, dose response, H4 neuroglioma cells, luminescence (AID 1990); assay type: functional, cell-based
[3] = Luminescence Cell-Based Dose Response HTS to Identify Inhibitors of 5'UTR Stem-Loop Driven Prion Protein mRNA Translation in H4 Neuroglioblastoma Cells. [Related pubchem assays: 1827 (Project Summary), 1813 (Primary HTS)]; assay type: functional
[4] = target: Luciferin 4-monooxygenase (Photinus pyralis, UniProt P08659); assay: firefly luciferase enzyme inhibitors, dose response, biochemical, luminescence (AID 1891)
[5] = Luminescence Cell-Based Dose Confirmation HTS to Identify Inhibitors of Platelet Dense Granule Release. [Related pubchem assays: 1663 (Primary HTS), 1678 (Summary of Project)]; assay type: functional
[6] = target: T1, Heat shock factor protein 1 (Mus musculus, UniProt P38532); assay: HSF1 potentiators in luciferase reporter cells, confirmation, cell-based, NIH3T3, luminescence, dose retest (AID 435004); assay type: functional;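 further: stress induced by proteasome inhibitor MG132 added 30 min after compound; luciferase reporter driven by HSF1 response element in NIH3T3 cells; actives raise luminescence as potentiators of the MG132 stress response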
T1 sequence (P38532 whole entry): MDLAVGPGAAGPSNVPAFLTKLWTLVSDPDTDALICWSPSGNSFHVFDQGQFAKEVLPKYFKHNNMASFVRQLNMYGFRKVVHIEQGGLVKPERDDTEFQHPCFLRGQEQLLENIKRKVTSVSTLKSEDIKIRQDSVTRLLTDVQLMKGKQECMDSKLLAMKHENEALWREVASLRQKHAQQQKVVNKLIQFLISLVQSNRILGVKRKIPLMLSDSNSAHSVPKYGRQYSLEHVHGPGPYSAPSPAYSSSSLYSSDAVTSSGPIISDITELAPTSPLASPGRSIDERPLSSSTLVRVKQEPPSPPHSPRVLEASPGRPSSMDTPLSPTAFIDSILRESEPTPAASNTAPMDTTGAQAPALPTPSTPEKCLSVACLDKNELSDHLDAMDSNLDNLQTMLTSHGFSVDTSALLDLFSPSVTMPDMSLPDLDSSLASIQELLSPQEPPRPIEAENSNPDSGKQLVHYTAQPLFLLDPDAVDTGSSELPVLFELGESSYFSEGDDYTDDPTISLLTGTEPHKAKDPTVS

Streptococcus = assay: Group A Streptococcus viability loss, dose response, counter-screen for streptokinase expression inhibitor project, luminescence, BacTiterGlo (AID 1915); assay type: functional, organism-based;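 further: potency for reduction of bacterial viability or growth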
[7] = tested on: Streptococcus sp. 'group A'; assay: growth inhibition of control SK(-) GAS strain, dose response, counter-screen for streptokinase expression inhibitor project, luminescence, kanamycin, BacTiterGlo, confirmation (AID 1900); assay type: functional, organism-based
[8] = Luminescence Cell-Based Dose Retest to Confirm Inhibitors of Cancer Stem Cells. [Related pubchem assays (depositor defined):AID2717, AID2721]; assay type: functional; conditions: Homo sapiens
Cytochrome P450 2D6 = Cytochrome P450 2D6 (Homo sapiens, UniProt P10635);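 further: CYP2D6 member of a cytochrome P450 panel assay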
Cytochrome P450 2C19 = Cytochrome P450 2C19 (Homo sapiens, UniProt P33261); assay: Cytochrome panel assay with activity outcomes. Panel member name: p450-cyp2c19 Compounds with AC50 equal or less than 10 uM are considered active; assay type: functional; conditions: read-out: AC50
Cytochrome P450 2C9 = Cytochrome P450 2C9 (Homo sapiens, UniProt P11712)
Cytochrome P450 1A2 = target: T2, Cytochrome P450 1A2 (Homo sapiens, UniProt P05177);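 further: PubChem cytochrome P450 panel assay, CYP1A2 panel member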
T2 sequence (P05177 whole entry): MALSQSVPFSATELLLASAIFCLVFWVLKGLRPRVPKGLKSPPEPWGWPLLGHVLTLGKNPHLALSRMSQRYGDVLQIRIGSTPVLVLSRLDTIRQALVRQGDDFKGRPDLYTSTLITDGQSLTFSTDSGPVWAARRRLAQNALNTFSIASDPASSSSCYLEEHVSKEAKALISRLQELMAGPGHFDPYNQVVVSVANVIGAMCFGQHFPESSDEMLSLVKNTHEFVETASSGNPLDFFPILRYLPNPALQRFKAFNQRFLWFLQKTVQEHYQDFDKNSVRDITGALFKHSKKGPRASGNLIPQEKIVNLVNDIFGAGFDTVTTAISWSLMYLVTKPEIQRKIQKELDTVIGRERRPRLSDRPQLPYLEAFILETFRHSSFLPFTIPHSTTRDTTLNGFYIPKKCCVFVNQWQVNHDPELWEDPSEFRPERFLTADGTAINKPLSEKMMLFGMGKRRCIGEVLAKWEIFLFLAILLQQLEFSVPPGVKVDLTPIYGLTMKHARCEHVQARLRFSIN

[9] = inhibitors of intracellular T. cruzi replication, confirmation, NIH3T3 host cells, beta-gal luminescence (AID 2044); assay type: functional, cell-based;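 further: intracellular parasites grown in NIH/3T3 mouse fibroblasts as host cells; luminescent beta-galactosidase reporter signal from transgenic T. cruzi replicating inside host cells; inhibitors lower the luminescence signal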
[10] = cytotoxicity toward NIH3T3 fibroblasts, dose response, counter-screen, cell-based, ATP luminescence, mouse fibroblasts (AID 2010); assay type: functional;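 further: cells exposed to compound for about 90 hours before reading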
Cytochrome P450 3A4 = Cytochrome P450 3A4 (Homo sapiens, UniProt P08684);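 further: CYP3A4 tested as one member of a cytochrome P450 panel screen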
Sequence of Cytochrome P450 3A4 (P08684 whole entry): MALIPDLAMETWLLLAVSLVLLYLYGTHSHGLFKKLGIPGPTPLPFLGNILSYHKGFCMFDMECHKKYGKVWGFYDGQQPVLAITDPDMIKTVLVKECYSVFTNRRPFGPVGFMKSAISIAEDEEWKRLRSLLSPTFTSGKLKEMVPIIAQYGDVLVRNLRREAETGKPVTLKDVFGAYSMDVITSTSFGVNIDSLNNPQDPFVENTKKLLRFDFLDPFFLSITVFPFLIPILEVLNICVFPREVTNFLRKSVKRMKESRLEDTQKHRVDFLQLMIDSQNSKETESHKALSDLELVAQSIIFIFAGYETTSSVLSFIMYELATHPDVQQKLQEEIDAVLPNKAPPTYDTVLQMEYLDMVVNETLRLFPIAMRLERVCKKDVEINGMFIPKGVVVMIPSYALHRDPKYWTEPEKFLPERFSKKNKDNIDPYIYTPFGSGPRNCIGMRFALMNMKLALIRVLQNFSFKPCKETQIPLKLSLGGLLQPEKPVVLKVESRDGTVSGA

Sequence of Cytochrome P450 2D6 (P10635 whole entry): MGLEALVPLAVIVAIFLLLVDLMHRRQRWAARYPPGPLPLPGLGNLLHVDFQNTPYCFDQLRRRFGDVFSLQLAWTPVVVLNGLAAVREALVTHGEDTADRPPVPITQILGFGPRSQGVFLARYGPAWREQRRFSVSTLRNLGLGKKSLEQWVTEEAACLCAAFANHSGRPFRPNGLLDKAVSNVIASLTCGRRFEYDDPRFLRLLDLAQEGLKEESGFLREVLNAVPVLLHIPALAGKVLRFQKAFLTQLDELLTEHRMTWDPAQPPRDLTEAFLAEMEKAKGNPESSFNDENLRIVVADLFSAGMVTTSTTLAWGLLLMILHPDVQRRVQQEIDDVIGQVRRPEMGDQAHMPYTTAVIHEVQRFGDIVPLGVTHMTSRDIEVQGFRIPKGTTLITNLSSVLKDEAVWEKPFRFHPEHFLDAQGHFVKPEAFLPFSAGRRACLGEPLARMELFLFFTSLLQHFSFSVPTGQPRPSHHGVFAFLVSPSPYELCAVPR
Sequence of Luciferin 4-monooxygenase (P08659 whole entry): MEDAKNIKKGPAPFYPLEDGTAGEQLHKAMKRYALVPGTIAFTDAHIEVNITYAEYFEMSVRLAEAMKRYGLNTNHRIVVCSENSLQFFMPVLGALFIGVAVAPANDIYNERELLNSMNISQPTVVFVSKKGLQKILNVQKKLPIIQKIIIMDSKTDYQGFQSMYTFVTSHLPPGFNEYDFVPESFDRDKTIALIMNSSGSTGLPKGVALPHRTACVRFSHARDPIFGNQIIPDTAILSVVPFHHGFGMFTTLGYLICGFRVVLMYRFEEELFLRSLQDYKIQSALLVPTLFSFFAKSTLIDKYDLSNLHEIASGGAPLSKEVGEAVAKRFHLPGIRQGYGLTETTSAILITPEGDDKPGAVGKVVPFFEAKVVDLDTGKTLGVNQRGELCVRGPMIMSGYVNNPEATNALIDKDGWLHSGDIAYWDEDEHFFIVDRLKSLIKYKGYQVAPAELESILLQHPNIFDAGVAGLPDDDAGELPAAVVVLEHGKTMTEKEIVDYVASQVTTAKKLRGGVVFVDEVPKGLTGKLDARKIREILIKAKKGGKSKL
Sequence of Cytochrome P450 2C9 (P11712 whole entry): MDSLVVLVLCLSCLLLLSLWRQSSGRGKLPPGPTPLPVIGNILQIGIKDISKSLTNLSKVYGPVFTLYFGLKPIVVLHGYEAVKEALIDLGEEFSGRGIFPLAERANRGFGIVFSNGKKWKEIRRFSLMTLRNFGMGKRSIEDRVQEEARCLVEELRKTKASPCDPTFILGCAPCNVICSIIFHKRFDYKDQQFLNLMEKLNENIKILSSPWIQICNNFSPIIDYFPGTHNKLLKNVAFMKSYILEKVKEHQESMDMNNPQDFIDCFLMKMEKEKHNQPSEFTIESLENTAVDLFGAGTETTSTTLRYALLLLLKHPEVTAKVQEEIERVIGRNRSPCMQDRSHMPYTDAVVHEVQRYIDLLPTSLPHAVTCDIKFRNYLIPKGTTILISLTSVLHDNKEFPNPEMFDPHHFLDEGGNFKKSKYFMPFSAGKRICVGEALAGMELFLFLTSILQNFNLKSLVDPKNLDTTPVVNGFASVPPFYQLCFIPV
Sequence of Cytochrome P450 2C19 (P33261 whole entry): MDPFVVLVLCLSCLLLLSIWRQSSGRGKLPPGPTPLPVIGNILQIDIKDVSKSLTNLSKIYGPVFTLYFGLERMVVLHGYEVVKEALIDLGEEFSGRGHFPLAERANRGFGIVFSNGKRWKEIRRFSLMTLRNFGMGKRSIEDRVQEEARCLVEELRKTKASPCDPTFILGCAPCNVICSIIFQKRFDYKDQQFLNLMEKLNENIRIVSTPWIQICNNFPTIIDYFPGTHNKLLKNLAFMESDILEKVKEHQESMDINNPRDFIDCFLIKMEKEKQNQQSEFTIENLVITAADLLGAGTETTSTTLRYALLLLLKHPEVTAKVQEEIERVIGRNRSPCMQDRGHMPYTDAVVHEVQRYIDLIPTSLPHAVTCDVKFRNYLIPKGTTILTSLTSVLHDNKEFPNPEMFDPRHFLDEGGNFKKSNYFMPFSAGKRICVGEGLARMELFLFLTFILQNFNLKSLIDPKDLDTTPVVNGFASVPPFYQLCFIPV

COc1cc2c(cc1OC)-c1cc(NC3CCCCC3)nc(=O)n1CC2
EC50 [1]: 33.2 µM (active) | EC50 [2]: 20 µM (active) | EC50 [3]: > 120 µM (not active) | EC50 [4]: > 112 µM (not active) | EC50 [5]: 2.24 µM (active)

COCCNC(=O)/C(C#N)=C/c1ccc(OC(=O)c2cccs2)c(OC)c1
EC50 [6]: > 260 µM (inactive)

O=C(NCCc1ccccc1)N1c2ccccc2Sc2ccccc21
EC50 [6]: > 260 µM (inactive)

CN(C)/C=C(\C=N\OCc1ccc(Cl)cc1Cl)C(=O)Nc1ccc(Cl)c(Cl)c1
EC50 (Streptococcus): 3.07 µM (active) | EC50 [7]: 0.618 µM (active) | AC50 [8]: 1.5 µM (active)

Cc1oc(CC(C)C)cc1C(=O)Nc1cccc2ccccc12
AC50 [8]: 5 µM (active)

C/C(N)=C(/C#N)C(=O)CSc1nnc(-c2ccc3c(c2)OCO3)o1
EC50 [6]: > 260 µM (inactive)

Cc1ccc(CN(C(=O)c2csnn2)C(C(=O)NC2CCCC2)c2ccc(C)o2)cc1 (centres undefined)
EC50 [4]: 67.6 µM (active) | EC50 [5]: > 112 µM (not active)

CCOCCn1c(CN(Cc2ccccc2)Cc2ccccc2)nc2c1c(=O)[nH]c(=O)n2C
AC50 (Cytochrome P450 2D6): 39.8 µM (inconclusive) | AC50 (Cytochrome P450 2C19): 17.8 µM (inconclusive)

COc1ccc(-c2coc3cc4oc(=O)c(CC(=O)O)c(C)c4cc23)cc1
EC50 [6]: > 260 µM (inactive)

CCC(=O)Nc1cccc(C(=O)/C=C/c2ccc(F)cc2)c1
EC50 [6]: 11.6 µM (active)

O=C(NC1CCCCC1)C(Cc1ccccc1)N1C(=O)C2C3CCC(C3)C2C1=O (centres undefined)
AC50 (Cytochrome P450 2D6): 31.6 µM (inconclusive) | AC50 (Cytochrome P450 2C9): 0.1 µM (inconclusive)

Cc1ccccc1C(=O)N/N=C/c1ccncc1
AC50 (Cytochrome P450 2D6): 22.4 µM (inconclusive)

CCOc1ccc(/C=N/NC(=O)COc2ccccc2-c2ccccc2)cc1
AC50 [8]: 4.37 µM (active)

CC(C)CN(C(=O)c1cccs1)C1CCS(=O)(=O)C1 (centres undefined)
EC50 [6]: > 260 µM (inactive)

COC(=O)c1ccc(CSc2nnnn2-c2ccc(C)cc2C)o1
EC50 [6]: > 260 µM (inactive)

O=S(=O)(Nc1nc2ccccc2nc1N1CCN(c2ccccc2F)CC1)c1ccc(Cl)cc1
AC50 [8]: 4.82 µM (active)

COC(=O)c1c(NC(=O)/C=C/c2ccc3c(c2)OCO3)sc(C)c1C
AC50 [8]: 4.17 µM (active)

O=C(Nc1ccc(Cl)cn1)c1ccc(-c2ccc(Cl)c(Cl)c2)o1
EC50 [4]: > 112 µM (not active) | EC50 [5]: > 112 µM (not active)

Cn1ccc2cc3c(cc21)CCN3C(=O)Nc1cccnc1
AC50 (Cytochrome P450 2D6): 31.6 µM (inconclusive) and 20 µM (inconclusive)

O=C(N/C(=C/c1cccs1)c1nc2ccccc2[nH]1)c1ccccc1
AC50 (Cytochrome P450 2D6): 28.2 µM (inconclusive) | AC50 (Cytochrome P450 2C9): 7.94 µM (inconclusive) | AC50 (Cytochrome P450 1A2): 25.1 µM (inconclusive)

C/C(Cn1cnc([N+](=O)[O-])n1)=N\NC(=O)c1ccccc1F
EC50 [9]: 1.25 µM (active) | EC50 [6]: > 260 µM (inactive) | EC50 [10]: > 60 µM (not active)

O=[N+]([O-])c1cc([N+](=O)[O-])c(Oc2c(F)cccc2F)cc1NN1CCCCC1
EC50 [6]: > 260 µM (inactive)

Cc1nn(C)c(Oc2ccccc2)c1CCNS(=O)(=O)c1ccc(Cl)cc1
EC50 [6]: > 260 µM (inactive)

CCC(C)(C)NC(=O)C(c1ccc(C)cc1)N(Cc1cccs1)C(=O)c1ccc2c(c1)OCCO2 (centres undefined)
EC50 [6]: > 260 µM (inactive)

COC(=O)[C@@]1(Cc2ccccc2)[C@H]2c3cc(C(=O)N4CCCC4)n(Cc4ccc(O)c(OC)c4)c3C[C@H]2CN1C(=O)c1ccccc1
AC50 (Cytochrome P450 2D6): 20 µM (inconclusive) | AC50 (Cytochrome P450 1A2): 25.1 µM (inconclusive)

CN(C)C(=O)c1ccc(-c2ccc3ncnc(Nc4ccccc4)c3c2)cc1
AC50 (Cytochrome P450 2D6): 12.6 µM (inconclusive) | AC50 (Cytochrome P450 3A4): 7.94 µM (inconclusive)

Cc1ccc(C(c2c(C)nn(-c3ccccc3)c2N)c2c(C)nn(-c3ccccc3)c2N)cc1
EC50 [6]: > 260 µM (inactive)

COC(=O)c1cccc([N+](=O)[O-])c1CN1CCCC(C(N)=O)C1 (centres undefined)
EC50 [4]: > 112 µM (not active) | EC50 [5]: > 112 µM (not active)

COc1cccc(Cn2c(=O)cnc3cnc(N4CCN(C)CC4)nc32)c1
AC50 (Cytochrome P450 2D6): 20 µM (inconclusive) | AC50 (Cytochrome P450 2C9): 25.1 µM (inconclusive) | AC50 (Cytochrome P450 1A2): 25.1 µM (inconclusive)

COc1cccc(Oc2c(C)oc3c(CN4CCCCC4)c(O)ccc3c2=O)c1
EC50 [4]: > 112 µM (not active) | EC50 [5]: 19.2 µM (active)

O=C(COc1ccc(Cl)cc1)Nc1ccc(Cc2ccncc2)cc1
EC50 [4]: > 112 µM (not active) | EC50 [5]: > 112 µM (not active)

ClC(Cl)c1nnc(-c2ccccc2)c(-c2c[nH]c3ccccc23)n1
EC50 [6]: 81.5 µM (active)

COC(=O)[C@@]1(Cc2ccccc2)[C@H]2c3cc(C(=O)N4CCCC4)n(Cc4ccsc4Br)c3C[C@H]2CN1C(=O)c1ccccc1
AC50 (Cytochrome P450 2D6): 12.6 µM (inconclusive)

COc1ccc(C(C[N+](=O)[O-])C2(c3ccc(OC)c(OC)c3)C(=O)c3ccccc3C2=O)cc1 (centres undefined)
EC50 [6]: 13.3 µM (active)

C/C(NNc1ccccc1)=C1/C(=O)NC(=O)N(Cc2ccccc2)C1=O
AC50 [8]: 1.03 µM (active)

O=[N+]([O-])c1ccc(N/N=C/c2c[nH]c3ccccc23)c(S(=O)(=O)Nc2ccc(Cl)cc2)c1
AC50 [8]: 1.15 µM (active)

COc1ccc(C(=O)N2CCC3(CC2)CN(c2ccc(-c4ccccc4)cc2)C3)cc1
AC50 (Cytochrome P450 2D6): 15.8 µM (inconclusive)

Cc1nn(C(C)C(=O)N2CCc3ccccc3C2)c(=O)c2cc3occc3n12 (centres undefined)
EC50 [4]: > 112 µM (not active) | EC50 [5]: > 112 µM (not active)

COC(=O)C1=C(C)N=C2SCCC(=O)N2C1c1ccc(OC(=O)c2ccco2)cc1 (centres undefined)
EC50 [4]: > 112 µM (not active) | EC50 [5]: > 112 µM (not active)

CCS(=O)(=O)c1ccc2oc(Nc3ccccc3Cl)nc2c1
EC50 [4]: 1.75 µM (active) | EC50 [5]: 7.7 µM (active)

COC(=O)[C@@]1(Cc2ccc(F)cc2)[C@H]2c3cc(C(=O)N(C)C)n(Cc4ccc(O)c(OC)c4)c3C[C@H]2CN1C(=O)c1ccccc1
AC50 (Cytochrome P450 2D6): 20 µM (inconclusive) | AC50 (Cytochrome P450 1A2): 25.1 µM (inconclusive)

COc1ccc(N(CC(=O)N2CCc3ccccc32)S(=O)(=O)c2c(C)noc2C)cc1
EC50 [6]: 56.1 µM (active)

CCC(C)C1NC(=S)N(C2CCCCC2)C1=O (centres undefined)
EC50 [1]: > 120 µM (not active) | EC50 [2]: > 120 µM (not active) | EC50 [3]: > 120 µM (not active) | AC50 (Cytochrome P450 3A4): 17.8 µM (inconclusive)

CCCCc1ccc(NC(=O)Nc2cc(C)nn2C)cc1
AC50 [8]: 3.31 µM (active)

Cc1nc(N2CCC(C)CC2)c2c(C)c(C(=O)Nc3cccc(C(F)(F)F)c3)sc2n1
EC50 [6]: > 260 µM (inactive)

COc1ccccc1CNc1ccnc(-c2cccc(NS(C)(=O)=O)c2)n1
AC50 (Cytochrome P450 2D6): 39.8 µM (inconclusive)

C[C@@H](C(=O)Nc1ccc2ccccc2c1)[C@@H]1C[C@@]1(C)[C@@H](NC(=O)OCc1ccccc1)c1ccccc1
AC50 (Cytochrome P450 2D6): 12.6 µM (inconclusive)

CC(C)NC[C@H]1CCc2cc(CO)c([N+](=O)[O-])cc2N1
AC50 (Cytochrome P450 2D6): 6.31 µM (inconclusive) | AC50 (Cytochrome P450 1A2): 10 µM (inconclusive)

CC(C)n1nc(C(=O)Nc2ccccc2N2CCOCC2)c2ccccc2c1=O
EC50 [4]: > 112 µM (not active) | EC50 [5]: 26.7 µM (active)
